For eight compounds, GI50 and TGI results are on record in PubChem BioAssay (NCI).

Where “and” joins values, the source holds several entries; their conditions need not be identical. Equal entries are not always repeated.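 48-hour exposure; five concentrations; linearly interpolated endpoints. Abbreviation: GI50, concentration required for 50% inhibition of growth. TGI: concentration producing complete growth inhibition.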

Some test systems named below: A498 renal; BT-549 breast; CCRF-CEM leukemia; HL-60(TB) leukemia; HS 578T breast; HT29 colon; MDA-MB-231 breast; SK-MEL-28 melanoma; SR leukemia; SW-620 colon.
Common to all, as to experiment: NCI tumour cell line growth inhibition, 48 h

Consider `CN[C@H](C#Cc1c(F)ccc2c1/C(=C/c1[nH]ccc1OC)C(=O)N2)CO`, for which the GI50 with A498 renal was 0.452 µM; in the experiment with BT-549 breast it was 1.15 µM; in the experiment with CCRF-CEM leukemia, 0.349 µM; in the experiment with HL-60(TB) leukemia it was 0.513 µM; with HS 578T breast, 0.212 µM; in the experiment with HT29 colon, 0.438 µM. Besides, the GI50 with MDA-MB-231 breast is 0.787 µM; with SK-MEL-28 melanoma it was 0.646 µM; with SR leukemia, 0.109 µM; in the experiment on SW-620 colon, 0.476 µM. For the same compound, the TGI in the experiment with A498 renal came out at 3.35 µM; in the experiment with BT-549 breast, 4.15 µM; with CCRF-CEM leukemia, 1.83 µM; in the experiment with HL-60(TB) leukemia, 2.01 µM; in the experiment with HS 578T breast, 12.9 µM; in the experiment on HT29 colon, 2.39 µM. Further, the TGI turned out to be 3 µM in the experiment on MDA-MB-231 breast, 4.31 µM in the experiment with SK-MEL-28 melanoma, 1.91 µM with SR leukemia and 2.71 µM in the experiment with SW-620 colon.

Take `O=c1ccn(C2CC(O)C(CO)O2)c(=O)[nH]1` (stereo not given): the GI50 in the experiment with A498 renal is greater than 5000 µM; in the experiment on BT-549 breast it was greater than 5000 µM; with CCRF-CEM leukemia, 95.8 µM and 110 µM; in the experiment on HL-60(TB) leukemia, greater than 5000 µM; in the experiment on HS 578T breast, greater than 5000 µM; in the experiment with HT29 colon, greater than 5000 µM. For the same compound, the GI50 in the experiment with MDA-MB-231 breast, with SK-MEL-28 melanoma, with SR leukemia and in the experiment with SW-620 colon was greater than 5000 µM each time. Further, the TGI in the experiment on A498 renal is greater than 5000 µM; in the experiment with BT-549 breast, greater than 5000 µM; with CCRF-CEM leukemia, 838 µM; with HL-60(TB) leukemia it was greater than 5000 µM; in the experiment on HS 578T breast, greater than 5000 µM; in the experiment on HT29 colon, greater than 5000 µM. The TGI in the experiment with MDA-MB-231 breast, in the experiment on SK-MEL-28 melanoma, in the experiment on SR leukemia and in the experiment on SW-620 colon was greater than 5000 µM throughout.

In the case of `O=C1C(N2CC2)=C(N2CC2)C(=O)C(N2CC2)=C1N1CC1`, the GI50 with A498 renal was 0.348 µM; in the experiment with BT-549 breast, 0.318 µM; with CCRF-CEM leukemia, 1.82 µM; in the experiment on HL-60(TB) leukemia it was 0.201 µM; with HS 578T breast it was 1.28 µM; with HT29 colon, 0.181 µM. In addition, the GI50 in the experiment with MDA-MB-231 breast is 14.9 µM; with SK-MEL-28 melanoma, 0.838 µM; with SR leukemia, 0.0345 µM; in the experiment with SW-620 colon, 0.419 µM. The TGI is 1.19 µM with A498 renal; 1.53 µM in the experiment on BT-549 breast; greater than 100 µM in the experiment with CCRF-CEM leukemia; 8.64 µM in the experiment with HL-60(TB) leukemia; 6.21 µM in the experiment with HS 578T breast; 15.1 µM in the experiment on HT29 colon. In addition, the TGI in the experiment on MDA-MB-231 breast was 56.1 µM; in the experiment on SK-MEL-28 melanoma, 2.32 µM; in the experiment with SR leukemia, greater than 100 µM; in the experiment on SW-620 colon it was 6.09 µM.

Take `COc1cc2ccccc2oc1=O`: the TGI in the experiment with A498 renal, in the experiment on BT-549 breast, with CCRF-CEM leukemia, with HL-60(TB) leukemia, in the experiment with HS 578T breast and in the experiment on HT29 colon was greater than 100 µM in each case. The TGI in the experiment on MDA-MB-231 breast, with SK-MEL-28 melanoma, in the experiment on SR leukemia and with SW-620 colon was greater than 100 µM throughout.

On to `C=C1/C(=C\C=C2/CCC[C@]3(C)[C@@H]([C@H](C)CCCC(C)(C)O)CC[C@@H]23)C[C@@H](OC(=O)CBr)C[C@@H]1O`, for which the GI50 in the experiment on A498 renal is 0.469 µM; in the experiment with BT-549 breast, 1.96 µM; in the experiment with CCRF-CEM leukemia it was 0.0491 µM; with HL-60(TB) leukemia, 0.3 µM; in the experiment with HS 578T breast, 1.79 µM; in the experiment on HT29 colon, 1.15 µM. In addition, the GI50 in the experiment on MDA-MB-231 breast was 1.39 µM; with SK-MEL-28 melanoma, 4.95 µM; in the experiment with SR leukemia, 0.0902 µM; in the experiment on SW-620 colon, 1.78 µM. Further, the TGI turned out to be 3.17 µM with A498 renal; 4.36 µM in the experiment on BT-549 breast; 0.307 µM with CCRF-CEM leukemia; 1.09 µM with HL-60(TB) leukemia; 8.12 µM with HS 578T breast; 10.5 µM with HT29 colon. Moreover, the TGI with MDA-MB-231 breast came out at 5.4 µM; with SK-MEL-28 melanoma, 10.9 µM; with SR leukemia, 1.5 µM; with SW-620 colon it was 3.96 µM.

With `COc1ccc(-c2nc(-c3ccccc3)c(-c3ccccc3)[nH]2)cc1OC1CCCC1`, the GI50 with A498 renal was greater than 100 µM; in the experiment with BT-549 breast, greater than 100 µM; in the experiment with CCRF-CEM leukemia it was 51.8 µM; in the experiment with HL-60(TB) leukemia, greater than 100 µM; with HS 578T breast, greater than 100 µM; in the experiment with HT29 colon it was 30.8 µM. For the same compound, the GI50 is 15.5 µM with MDA-MB-231 breast, greater than 100 µM in the experiment with SK-MEL-28 melanoma, 15 µM in the experiment with SR leukemia and greater than 100 µM in the experiment on SW-620 colon. Further, the TGI with A498 renal, in the experiment on BT-549 breast, in the experiment with CCRF-CEM leukemia, in the experiment on HL-60(TB) leukemia, in the experiment with HS 578T breast and with HT29 colon was greater than 100 µM throughout. Besides, the TGI in the experiment on MDA-MB-231 breast, in the experiment with SK-MEL-28 melanoma, with SR leukemia and in the experiment with SW-620 colon was greater than 100 µM in each case.

As for `c1cc2n(n1)CCN2`, the TGI was 6270 µM in the experiment on A498 renal; greater than 10000 µM with BT-549 breast; 6680 µM in the experiment on CCRF-CEM leukemia; 5150 µM with HL-60(TB) leukemia; greater than 5490 µM with HS 578T breast; greater than 10000 µM in the experiment on HT29 colon. Moreover, the TGI is greater than 10000 µM with MDA-MB-231 breast, greater than 10000 µM in the experiment on SK-MEL-28 melanoma, greater than 9010 µM with SR leukemia and greater than 10000 µM in the experiment on SW-620 colon.

Turning to `C=CCC1(O)c2ccccc2C(=O)c2c(NCCN(CC(=O)OCC)CC(=O)OCC)cccc21` (stereo not given), the GI50 is greater than 100 µM with A498 renal; greater than 100 µM with BT-549 breast; greater than 100 µM in the experiment on CCRF-CEM leukemia; 71.9 µM in the experiment on HL-60(TB) leukemia; greater than 100 µM with HS 578T breast; greater than 100 µM in the experiment with HT29 colon. In addition, the GI50 with MDA-MB-231 breast is greater than 100 µM; with SK-MEL-28 melanoma, greater than 100 µM; in the experiment with SR leukemia it was 46.5 µM; in the experiment on SW-620 colon, greater than 100 µM. Also, the TGI in the experiment with A498 renal, with BT-549 breast, in the experiment on CCRF-CEM leukemia, in the experiment with HL-60(TB) leukemia, in the experiment with HS 578T breast and in the experiment with HT29 colon was greater than 100 µM each time. The TGI in the experiment on MDA-MB-231 breast, in the experiment with SK-MEL-28 melanoma, in the experiment with SR leukemia and with SW-620 colon was greater than 100 µM each time.
